Measurements reported in paper PMC9161444, “In-Membrane Nanostructuring of Cationic Amphiphiles Affects Their Antimicrobial Efficacy and Cytotoxicity: A Comparison Study between a De Novo Antimicrobial Lipopeptide and Traditional Biocides” (Langmuir, 2022).

Legend:
S. aureus (ATCC 6538) = format: cell-based, Staphylococcus aureus; details: for MIC/CAC, converted data, S. aureus: MIC divided by the amphiphile's CAC; for MIC, S. aureus: microdilution, serial half-dilution in PBS, Mueller Hinton broth, 37 °C, 24 h, 10^6 CFU/mL, by eye and OD600, ± SD, at least three replicates
Experimental: E. coli (ATCC 25922), S. aureus (ATCC 6538), and C. albicans SC5314 (ATCC MYA-2876) were purchased from the American Type Culture Collection (ATCC). The two bacterial strains, E. coli and S. aureus, were cultured in Mueller Hinton broth at 37 °C; while the yeast strain, C. albicans, was grown in RPMI 1640 medium at 30 °C. The microdilution method was employed to determine MICs of the amphiphiles against the microorganism strains listed above.[21] Solutions of lipopeptides and biocides were half-diluted serially in 96-well plates using PBS buffer containing 137 mM NaCl, 2.7 mM KCl, 8.1 mM Na2HPO4, and 1.9 mM KH2PO4 for E. coli and S. aureus and using RPMI 1640 for C. albicans. Overnight incubations of the strains, in each respective growth medium, were then inoculated into each well, giving final concentrations of 10^6 CFU/mL for E. coli and S. aureus and 10^5 CFU/mL for C. albicans. Culture media without microorganisms and amphiphiles were employed as positive controls, while fresh microorganism cultures without amphiphiles were used as negative controls. Each plate has both positive controls and negative controls. The plates were then incubated at an appropriate temperature (stated above) for 24 h for the bacterial strains and 48 h for the yeast strain. MICs of each sample were first determined by eye. A more quantitative analysis was carried out by measuring optical densities at 600 nm (OD600) of each well using a Sunrise absorbance microplate reader (Tecan Group Ltd.). Inhibitory ratios (IRs) of each sample at a given concentration against a specific strain, denoted as IRi, were calculated by IRi = (OD600,negative control – OD600,i)/(OD600,negative control – OD600,positive control) × 100%. All experiments were repeated at least three times with each group containing three replicates. To better analyze concentration–IR relationships, sigmoidal function fittings were employed to generate the best fitted dose response curve for each situation.

[1] = Surface tension measurements (CAC, area per molecule); format: physicochemical; details: Krüss K11, 25 °C, PBS or saline (171.5 mM NaCl, pH 7.2) of equivalent ionic strength, saline for C14KKGGII, points repeated at least three times
Experimental: Surface tensions of salt solutions of the amphiphiles were measured using a Krüss Force Tensiometer K11 at 25 °C. Saline (171.5 mM NaCl, final pH 7.2) instead of phosphate-buffered saline (PBS) was used to dissolve the samples of peptide C14KKGGII in order to avoid gelation above 0.1 mM. The ionic strength of the saline solution was the same as that of the PBS (consisting of 137 mM NaCl, 2.7 mM KCl, 8.1 mM Na2HPO4, and 1.9 mM KH2PO4, pH 7.2) solution employed in antimicrobial assays. Concentration effects on the surface tension were investigated for each amphiphile, and its CAC in the buffer environment was determined. All the data points were repeated at least three times. Quadratic functions were used to fit the surface tension at low concentrations below their CACs, while linear functions were used to fit the high concentration regions above the CACs for all three amphiphiles: [drawing 1] 1 [drawing 2] 2 where γ represents the surface tension in milli-newtons per meter, C is the amphiphile concentration in millimolar, and a1, b1, b2, c1, and c2 are the best fitted parameters. Intersections of the two lines give the estimated CACs of the amphiphiles. The Gibbs equation for solutions with a constant and excess salt is [drawing 3] […] The areas per molecule for the three amphiphiles at their CACs were calculated using [drawing 6] […]

Row | SMILES | MIC/CAC, converted data, S. aureus (S. aureus (ATCC 6538)) | MIC, S. aureus (S. aureus (ATCC 6538)) [µM] | CAC (critical aggregation concentration) [1] [µM]
1 | CCCCCCCCCCCC[N+](C)(C)C.[Br-] [C12TAB, dodecyltrimethylammonium bromide] | 0.03 ± 0.01 | 25 ± 7 | ~1000 ± 100
2 | CCCCCCCCCCCCCC[N+](C)(C)C.[Br-] [C14TAB, tetradecyltrimethylammonium bromide] | 0.06 ± 0.04 | 6 ± 4 | –
